From patent US12286418B2, “Compounds and methods for treating or preventing bacterial infections” (priority 2019, dated 2025)

System: E. coli MG1655
Assay: Accumulation assay in E. coli (LC-MS/MS)
Type: cell-based
Details: wildtype E. coli MG1655, 10 minutes incubation
Protocol: For the accumulation assay, the protocol from Richter, et al., 2017, Nature 545:299-304 was followed. An overnight culture of bacteria grown in LB Lennox, was inoculated into fresh media and grown to an OD600 of 0.5-0.6. Cells were pelleted, resuspended in 1× phosphate-buffered saline (PBS) and then incubated with the compound of interest for 10 minutes at 37°. After incubation, the OD600 was recorded to note if compounds affected cell growth and then the cultures were centrifuged down through a 9:1 mixture of silicone oil (viscosity=20 cST) to high temperature silicone oil which was cooled at −80°. Cell pellets were isolated and lysed by 3 cycles of freeze-thawing using liquid nitrogen and a 65° water bath. The cell lysate was isolated from the cell debris (in water and methanol) and then analyzed via mass spectrometry. […] Multiple reaction monitoring (MRM) was used to quantify these compounds. […] The concentrations of these compounds were calculated on the basis of their corresponding standard curves.
To determine the colony forming units (CFU) per mL based on the OD600, the OD600 of E. coli MG1655 culture in LB-Lennox was measured then the culture was diluted and plated to count colonies. Based on this, the CFU per mL for 1 O.D.600 (for MG1655 cells grown in LB-Lennox) was determined to be approximately 2.15×10^8 and this value was used for accumulation calculations. […]

Compound: CCOc1ccccc1N1CCN(c2ncnc(N3CCC(C(=O)O)CC3)n2)CC1 [CDD-97, 1-(4-(4-(2-ethoxyphenyl)piperazin-1-yl)-1,3,5-triazin-2-yl)piperidine-4-carboxylic acid]
- accumulation in cells, fold lower levels compared to tetracycline: 20 fold
